Measured values published in US20100168218A1 (priority 2005, published 2010).
Where two headings read alike, the source gives them in different places. Values belong to the molecule of their own block, whether it stands above or below them.

Tests used:
[1] = Weight loss, food intake and indirect calorimetry in lean female Balb/C mice, 60 mg/kg; assay type: in vivo; details: for Metabolic Mechanism (indirect calorimetry): RER / Metabolic Mechanism (indirect calorimetry): VO2: compared to pair-fed animals; for % Maximum Reduction in Food Intake: day 1; for % Maximum Reduction in Food Intake / % Max. Wt Loss: 60 mg/kg
Description: Compounds 4 and 5 were administered to pair-fed mice, and various biological properties were tested for. The results are summarized below:
(§1) In contrast, it stimulated FAO by 150% of control at 8.4 μg/ml (28 μM) and CPT-1 activity by 150% of control at 20 μg/ml (˜60 μM). In lean female Balb/C mice, a single ip dose of 60 mg/kg caused nearly 8% weight loss within 24 hours along with a 68% reduction in food intake. […] Compound 5, with a different chemical structure, has similar biological characteristics to Compound 4.

[2] = Oral 100 mg/kg in diet-induced obese mice vs pair-fed and control animals (FIG. 3); assay type: in vivo
Description: In this experiment, compound 4 was administered orally at 100 mg/kg, in 35 μl DMSO to diet-induced obese mice, 5 animals per group.

[3] = system: MCF7 human breast cancer cells; assay: Fatty acid oxidation: oxidation of [14C]palmitate to acid soluble products; assay type: cell-based
Source text: By “FAO-stimulator,” we mean a compound which stimulates FAO as measured by oxidation of [^14C]palmitate to acid soluble products in MCF7 human breast cancer cells as described by Watkins, et al., “Peroxisomal fatty acid beta-oxidation in HepG2 cells,” Arch Biochem Biophys, 289: 329-336 (1991). A compound whose Vmax is at least 125% of vehicle control is defined as an FAO stimulator.

CPT-1 = CPT-1 activity in digitonin permeabilized cells; assay type: cell-based
human FAS = human FAS (Homo sapiens, UniProt P49327); assay: FAS inhibition assay (standard and slow-binding); assay type: biochemical
human FAS, sequence (P49327 whole entry): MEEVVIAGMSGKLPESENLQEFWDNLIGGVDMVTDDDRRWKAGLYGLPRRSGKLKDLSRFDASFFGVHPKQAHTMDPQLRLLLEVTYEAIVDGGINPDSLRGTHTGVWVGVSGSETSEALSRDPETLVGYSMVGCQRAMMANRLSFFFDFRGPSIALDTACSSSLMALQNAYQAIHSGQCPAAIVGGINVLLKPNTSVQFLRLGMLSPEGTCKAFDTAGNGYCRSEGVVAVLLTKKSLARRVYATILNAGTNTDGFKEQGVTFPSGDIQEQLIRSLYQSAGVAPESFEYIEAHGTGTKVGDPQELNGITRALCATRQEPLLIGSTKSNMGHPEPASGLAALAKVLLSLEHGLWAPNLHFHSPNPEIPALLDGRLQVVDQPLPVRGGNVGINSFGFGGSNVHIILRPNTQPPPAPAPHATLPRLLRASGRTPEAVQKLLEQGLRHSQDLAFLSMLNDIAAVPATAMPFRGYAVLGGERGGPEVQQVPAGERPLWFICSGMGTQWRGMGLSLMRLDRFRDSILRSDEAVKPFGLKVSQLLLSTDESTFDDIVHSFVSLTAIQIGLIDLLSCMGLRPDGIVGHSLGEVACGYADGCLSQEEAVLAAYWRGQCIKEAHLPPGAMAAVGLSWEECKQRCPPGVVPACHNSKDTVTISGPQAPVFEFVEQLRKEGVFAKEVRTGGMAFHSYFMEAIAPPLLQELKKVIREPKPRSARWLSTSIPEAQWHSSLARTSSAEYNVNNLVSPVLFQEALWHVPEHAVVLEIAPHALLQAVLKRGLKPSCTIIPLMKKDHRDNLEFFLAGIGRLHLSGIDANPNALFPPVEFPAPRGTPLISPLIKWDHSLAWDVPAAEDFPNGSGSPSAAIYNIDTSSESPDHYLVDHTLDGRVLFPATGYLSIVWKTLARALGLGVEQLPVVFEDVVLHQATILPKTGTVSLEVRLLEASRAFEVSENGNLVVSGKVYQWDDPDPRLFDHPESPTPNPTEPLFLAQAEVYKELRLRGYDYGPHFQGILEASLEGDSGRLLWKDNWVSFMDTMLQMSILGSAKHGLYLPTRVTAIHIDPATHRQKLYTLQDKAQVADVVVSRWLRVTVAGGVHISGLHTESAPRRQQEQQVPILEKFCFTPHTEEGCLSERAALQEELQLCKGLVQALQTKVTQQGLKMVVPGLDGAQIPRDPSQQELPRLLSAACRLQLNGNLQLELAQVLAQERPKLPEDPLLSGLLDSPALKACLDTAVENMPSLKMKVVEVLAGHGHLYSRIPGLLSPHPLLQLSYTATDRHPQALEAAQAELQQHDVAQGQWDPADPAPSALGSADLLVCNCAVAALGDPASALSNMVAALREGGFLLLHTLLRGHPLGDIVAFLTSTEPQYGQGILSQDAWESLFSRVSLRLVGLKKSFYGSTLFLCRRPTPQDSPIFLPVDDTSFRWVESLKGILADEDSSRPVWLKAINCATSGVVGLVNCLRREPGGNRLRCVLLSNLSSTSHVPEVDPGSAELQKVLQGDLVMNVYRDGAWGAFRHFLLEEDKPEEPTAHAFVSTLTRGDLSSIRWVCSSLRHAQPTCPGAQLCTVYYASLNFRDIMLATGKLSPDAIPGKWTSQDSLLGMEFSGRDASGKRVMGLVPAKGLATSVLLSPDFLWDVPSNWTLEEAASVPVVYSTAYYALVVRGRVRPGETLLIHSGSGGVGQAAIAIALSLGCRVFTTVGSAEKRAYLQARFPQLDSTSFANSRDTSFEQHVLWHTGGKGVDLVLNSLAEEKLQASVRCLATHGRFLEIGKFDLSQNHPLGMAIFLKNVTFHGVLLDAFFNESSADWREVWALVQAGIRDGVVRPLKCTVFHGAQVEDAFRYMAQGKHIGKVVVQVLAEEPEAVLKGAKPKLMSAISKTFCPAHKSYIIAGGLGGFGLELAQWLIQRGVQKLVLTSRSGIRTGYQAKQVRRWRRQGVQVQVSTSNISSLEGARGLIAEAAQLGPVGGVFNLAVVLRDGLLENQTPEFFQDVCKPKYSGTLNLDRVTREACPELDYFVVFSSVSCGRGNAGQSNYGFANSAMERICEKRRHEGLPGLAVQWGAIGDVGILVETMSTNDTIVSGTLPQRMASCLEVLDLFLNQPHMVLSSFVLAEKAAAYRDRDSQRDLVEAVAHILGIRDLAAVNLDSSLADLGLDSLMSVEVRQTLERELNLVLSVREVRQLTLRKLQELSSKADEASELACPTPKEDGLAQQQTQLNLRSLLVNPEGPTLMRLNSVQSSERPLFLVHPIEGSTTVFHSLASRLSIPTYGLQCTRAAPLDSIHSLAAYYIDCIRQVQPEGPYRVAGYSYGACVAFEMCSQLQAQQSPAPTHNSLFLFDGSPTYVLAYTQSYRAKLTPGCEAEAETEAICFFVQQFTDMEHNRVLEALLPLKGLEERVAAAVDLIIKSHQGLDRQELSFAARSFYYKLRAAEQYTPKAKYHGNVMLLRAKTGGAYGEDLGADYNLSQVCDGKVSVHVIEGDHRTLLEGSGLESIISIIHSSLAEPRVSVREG
Description: as §1

[4] = system: FAO in the ventrolateral hypothalamus (VLH); details: cited from earlier work
[5] = system: carnitine palmitoyltransferase-1 (CPT-1); details: Thupari et al.; cited from earlier work
[6] = C75 administration, separate studies; cited from earlier work
[7] = systemic FAO inhibition, rodents; cited from earlier work
[8] = portal vein infusion, 18 h chow deprived rats; cited from earlier work
[9] = single ip dose of 60 mg/kg, within 24 hours, lean female Balb/C mice
[10] = concentration that yields a 50% increase in fatty acid oxidation over controls, linear regression analysis, read-out: FAO SC150
[11] = slow binder requires preincubation at 37° C. prior to FAS assay, read-out: FAS Inhibition IC50

EC50 [3, 10]: 8.4 µg/mL | EC50 ([3]; molar equivalent of 8.4 μg/ml, read-out: concentration stimulating FAO by 150% of control): 28 µM | IC50 (human FAS; [11]): > 77.5 µM | IC50 (human FAS; standard and slow-binding assays, read-out: human FAS inhibition: no inhibition at concentrations up to): > 310 µM
Structure (SMILES): C=CCC1(CC=C)C(=O)S[C@](C)(CCCCCCCC)C1=O [Compound 4]
Metabolic Mechanism (indirect calorimetry): RER [1]: ↓RER p = 0.0057 | Metabolic Mechanism (indirect calorimetry): VO2 [1]: ↑VO2 | Metabolic Mechanism (indirect calorimetry): RER ([1]; listed as compound 4): reducing RER | Metabolic Mechanism (indirect calorimetry): VO2 ([1]; listed as compound 4): increased VO2 compared to pair-fed animals | % Maximum Reduction in Food Intake ([1]; lean female Balb/C mice): 68% (day 1) | % Max. Wt Loss ([1]; lean female Balb/C mice): 7.9% | reduction in food intake [1, 9]: 68% | weight loss [1, 9]: ~8% | RER vs pair-fed group (FIG. 3D) ([2]; oral 100 mg/kg): significantly reduced compared to the pair-fed group on days 1, 3, and 4 | VO2 by indirect calorimetry vs pair-fed animals (FIG. 3C) ([2]; oral 100 mg/kg): maintained their VO2 compared to pair-fed animals on the first two days following treatment with a significant increase by day 3 | food intake vs control animals (FIG. 3B) ([2]; oral 100 mg/kg): ate significantly less food than control animals on the two days following treatment | weight loss vs pair-fed animals (FIG. 3A) ([2]; oral 100 mg/kg in DMSO): lost more weight and maintained the weight loss longer than the pair-fed animals | CPT-1 Activity % (CPT-1; % of control at concentration for maximal CPT-1 activity, digitonin permeabilized cells): 150% | concentration giving CPT-1 activity 150% of control (CPT-1; molar equivalent of 20 μg/ml): ~60 µM | concentration for maximal CPT-1 activity (CPT-1; number in parenthesis, digitonin permeabilized cells): 20 µg/mL

Structure (SMILES): C=CCCC(=O)O [Compound 4-PA, 4-pentanoic acid]
weight or carcass composition ([4]; after 2 weeks of central FAO inhibition, rats): no significant changes in weight or carcass composition | reduction of FAO in the VLH ([4]; infusion for 14 days into the VLH of rats): 37%

EC50 [3, 10]: 9 µg/mL | IC50 (human FAS; [11]): > 110 µM
Structure (SMILES): CCCCC1OC(=O)C(=O)C1C(=O)OCC (stereo not drawn) [Compound 5]
Metabolic Mechanism (indirect calorimetry): RER [1]: ↓RER p = 0.01 | Metabolic Mechanism (indirect calorimetry): VO2 [1]: ↑VO2 | % Maximum Reduction in Food Intake ([1]; lean female Balb/C mice): 50% (day 1) | % Max. Wt Loss ([1]; lean female Balb/C mice): 12.3%

Structure (SMILES): C=C1C(=O)O[C@@H](CCCCCCCC)[C@@H]1C(=O)O (relative stereo) [Compound C75, trans-tetrahydro-3-methylene-2-oxo-5-n-octyl-4-furancarboxylic]
CPT-1 activity [5]: stimulates carnitine palmitoyltransferase-1 (CPT-1) activity | energy expenditure [6]: increases energy expenditure | food intake [6]: reducing food intake

Structure (SMILES): C[N+](C)(C)C[C@H](O)CC(=O)[O-] [L-carnitine]
food intake or animal weight ([4]; infusion into the VLH of rats): did not affect food intake or animal weight | increase of FAO in the VLH over control levels ([4]; infusion into the VLH of rats): 28%

Structure (SMILES): O=C(O)CS [mercaptoacetate]
feeding [7]: Increased feeding

Structure (SMILES): CCCCCCCC(=O)O [caprylic acid]
FAO as measured by plasma β-hydroxybutyrate [8]: increased FAO | reduction of the size of the first dark phase meal [8]: 38%

Structure (SMILES): CCCCCCCCCCCCCCC1(C(=O)OC)CO1 (stereo not drawn) [methyl palmoxirate]
feeding [7]: Increased feeding
